Measurements published in patent US10517889B2, “Modulators of SMAD7 expression” (Ionis Pharmaceuticals, Inc., priority 2017, dated 2019).
Strand notation (5' to 3'): a small letter for the sugar, then the base; units joined by * are phosphorothioate-linked, units joined directly phosphodiester-linked; [ ] holds rarer units or linkages, { } end groups; capitals alone tell only the bases. e = 2'-O-(2-methoxyethyl) (MOE); [5mC] = 5-methylcytosine; d = 2'-deoxy (DNA)

system: human SMAD7 mRNA; assay: Antisense inhibition of human SMAD7 mRNA expression in Hep3B cells by 5-10-5 MOE gapmers, single concentration, electroporation, RT-PCR (Example 1, Study 1 and 2); format: cell-based; conditions: Study 2, electroporation with 15,000 nM antisense oligonucleotide, 5-10-5 MOE gapmers targeting SEQ ID NO: 1 and 2
Procedure, shortened: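 Readout is percent SMAD7 mRNA inhibition versus untreated cells, measured by qRT-PCR (RTS5062) and corrected for total RNA by RIBOGREEN. Oligonucleotide, 5,000 nM or 15,000 nM, was delivered by electroporation into Hep3B cells at 20,000 per well. RNA was collected about 24 h later.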

Row | Substance | % inhibition of SMAD7 mRNA expression [%] | % Inhibition [%]
1 | 771519 (antisense eA*eA*eA*eG*e[5mC]*dA*dA*dG*d[5mC]*dA*d[5mC]*dT*d[5mC]*dA*dG*eG*eA*eG*eG*eA) [compound 771519] | 25 | –
2 | 771591 (antisense e[5mC]*eA*eG*eA*eA*dG*d[5mC]*d[5mC]*dT*dG*dT*dG*dG*dA*d[5mC]*eA*eG*eG*e[5mC]*e[5mC]) [compound 771591] | 50 | –
3 | 771747 (antisense eG*eT*eG*eT*eG*dT*dT*dT*d[5mC]*dA*dA*dA*dG*dG*dA*eA*eA*eA*eG*e[5mC]) [compound 771747] | – | 10
4 | 771582 (antisense e[5mC]*eT*eG*eG*e[5mC]*dA*dG*d[5mC]*dT*dG*d[5mC]*dT*dG*dG*dG*eA*e[5mC]*e[5mC]*e[5mC]*e[5mC]) [compound 771582] | 37 | –
5 | 771469 (antisense eT*eT*e[5mC]*eT*eG*d[5mC]*dA*d[5mC]*d[5mC]*dA*dG*d[5mC]*dT*dG*dA*e[5mC]*eT*e[5mC]*eT*eT) [compound 771469] | 13 | –
6 | 771378 (antisense eA*eT*e[5mC]*eT*eT*dT*dA*dA*dG*d[5mC]*dA*d[5mC]*dG*d[5mC]*dT*e[5mC]*eT*eA*eA*eA) [compound 771378] | – | 22
7 | 771630 (antisense eT*eG*e[5mC]*eT*eA*dA*dG*d[5mC]*dA*dT*dG*dT*d[5mC]*d[5mC]*d[5mC]*eT*e[5mC]*e[5mC]*e[5mC]*eA) [compound 771630] | 37 | –
8 | 771763 (antisense e[5mC]*e[5mC]*e[5mC]*e[5mC]*eG*dT*d[5mC]*d[5mC]*dA*d[5mC]*dG*dG*dA*dA*d[5mC]*eG*eG*eA*eT*e[5mC]) [compound 771763] | – | 45
9 | 771787 (antisense eA*eA*eG*eA*eA*dG*dA*dA*dG*dG*dA*dG*d[5mC]*dT*d[5mC]*eA*eA*eA*e[5mC]*eT) [compound 771787] | – | 27
10 | 771743 (antisense eG*e[5mC]*e[5mC]*eA*eT*dA*d[5mC]*d[5mC]*dT*d[5mC]*d[5mC]*dA*dT*d[5mC]*dT*e[5mC]*eT*e[5mC]*eA*e[5mC]) [compound 771743] | – | 0
11 | 771724 (antisense e[5mC]*e[5mC]*eT*eT*e[5mC]*dT*d[5mC]*d[5mC]*d[5mC]*dA*dG*dA*dA*d[5mC]*d[5mC]*eT*eT*eG*eG*e[5mC]) [compound 771724] | – | 27
12 | 771804 (antisense eG*eA*e[5mC]*eA*eG*dA*dT*dG*d[5mC]*d[5mC]*dA*dG*d[5mC]*dA*dA*eG*eG*eA*eT*e[5mC]) [compound 771804] | – | 17
13 | 771772 (antisense eT*e[5mC]*e[5mC]*eT*e[5mC]*dA*dG*dG*dA*dA*d[5mC]*dA*dA*d[5mC]*dA*eA*eT*eG*e[5mC]*eT) [compound 771772] | – | 27
14 | 771686 (antisense eG*eT*eT*eT*eA*dT*d[5mC]*dT*dT*dT*dT*dT*dT*dA*dA*eT*eT*eT*eG*eG) [compound 771686] | 0 | –
15 | 771750 (antisense eG*eG*eA*e[5mC]*eA*dA*d[5mC]*dT*dT*dT*dT*d[5mC]*dA*dA*dG*eA*eA*e[5mC]*eT*e[5mC]) [compound 771750] | – | 29
16 | 771748 (antisense eA*e[5mC]*e[5mC]*e[5mC]*e[5mC]*d[5mC]*dA*d[5mC]*dA*dT*dT*dA*dA*dA*d[5mC]*eA*eT*eA*eA*eT) [compound 771748] | – | 0
17 | 771878 (antisense e[5mC]*eA*eG*eT*eT*dT*d[5mC]*dT*dA*dG*dA*dG*dG*dG*dT*eA*eG*eG*eA*eA) [compound 771878] | – | 22
18 | 771448 (eG*eA*eG*eT*e[5mC]*dG*dG*d[5mC]*dT*dA*dA*dG*dG*dT*dG*eA*eT*eG*eG*eG; antisense) [compound 771448] | – | 29
19 | 771532 (antisense eA*eG*eA*eA*eG*dA*dA*dA*dA*d[5mC]*d[5mC]*dA*dA*d[5mC]*d[5mC]*eA*eA*e[5mC]*eA*eA) [compound 771532] | 0 | –
20 | 771783 (antisense e[5mC]*e[5mC]*e[5mC]*eT*eT*d[5mC]*dA*dG*dA*dG*dA*dG*dT*d[5mC]*dA*e[5mC]*eT*eG*e[5mC]*eT) [compound 771783] | – | 49
21 | 771361 (antisense eA*e[5mC]*eA*eG*e[5mC]*dA*d[5mC]*d[5mC]*dT*dT*dG*dT*d[5mC]*dA*d[5mC]*e[5mC]*e[5mC]*eG*eT*e[5mC]) [compound 771361] | – | 27
22 | 771735 (antisense eT*eG*eG*eG*eT*d[5mC]*d[5mC]*d[5mC]*dT*d[5mC]*dA*dA*dG*dA*dG*e[5mC]*eT*e[5mC]*eA*e[5mC]) [compound 771735] | – | 38

same assay, conditions: electroporation with 15,000 nM antisense oligonucleotide (Study 2), 5-10-5 MOE gapmers targeting SEQ ID NO: 1 and 2

Row | Substance | % inhibition of SMAD7 mRNA expression [%] | % Inhibition of SMAD7 mRNA [%]
23 | 771609 (antisense eA*eT*eG*eT*e[5mC]*dA*d[5mC]*d[5mC]*dA*dG*dG*dG*d[5mC]*dA*dG*eG*e[5mC]*eA*eG*eG) [compound 771609] | 47 | –
24 | 771505 (antisense e[5mC]*eT*e[5mC]*eA*eG*d[5mC]*dT*d[5mC]*dA*d[5mC]*dG*d[5mC]*dT*d[5mC]*dT*eG*eT*e[5mC]*e[5mC]*e[5mC]) [compound 771505] | – | 29
25 | 771640 (antisense eG*eG*eT*eG*eT*d[5mC]*dA*dG*d[5mC]*d[5mC]*dT*dA*dG*dG*dA*eT*eG*eG*eT*eA) [compound 771640] | 0 | 35
26 | 771409 (antisense e[5mC]*e[5mC]*e[5mC]*e[5mC]*eT*dG*d[5mC]*dG*d[5mC]*d[5mC]*d[5mC]*dT*d[5mC]*d[5mC]*dT*e[5mC]*e[5mC]*eT*e[5mC]*eG) [compound 771409] | – | 33
27 | 771904 (antisense e[5mC]*e[5mC]*e[5mC]*eA*eA*d[5mC]*d[5mC]*d[5mC]*dA*dT*d[5mC]*dT*d[5mC]*d[5mC]*dA*e[5mC]*e[5mC]*eA*e[5mC]*e[5mC]) [compound 771904] | – | 0
28 | 771592 (antisense e[5mC]*eT*eG*e[5mC]*eT*d[5mC]*dA*dG*dA*dA*dG*d[5mC]*d[5mC]*dT*dG*eT*eG*eG*eA*e[5mC]) [compound 771592] | – | 16
29 | 771856 (antisense e[5mC]*eT*eG*eA*eA*dA*dG*dA*dA*dA*dG*dT*d[5mC]*d[5mC]*d[5mC]*eG*eA*e[5mC]*eT*eT) [compound 771856] | – | 35

same assay, conditions: electroporation, 5,000 nM, approximately 24 hours, relative to untreated control cells, gapmers targeting SEQ ID NO: 1 and 2

Row | Substance | % inhibition of SMAD7 mRNA expression [%]
30 | 771747 (antisense eG*eT*eG*eT*eG*dT*dT*dT*d[5mC]*dA*dA*dA*dG*dG*dA*eA*eA*eA*eG*e[5mC]) [compound 771747] | 2
31 | 771763 (antisense e[5mC]*e[5mC]*e[5mC]*e[5mC]*eG*dT*d[5mC]*d[5mC]*dA*d[5mC]*dG*dG*dA*dA*d[5mC]*eG*eG*eA*eT*e[5mC]) [compound 771763] | 34
32 | 771787 (antisense eA*eA*eG*eA*eA*dG*dA*dA*dG*dG*dA*dG*d[5mC]*dT*d[5mC]*eA*eA*eA*e[5mC]*eT) [compound 771787] | 0

same assay, conditions: electroporation, 15,000 nM antisense oligonucleotide (Study 2), 5-10-5 MOE gapmers targeting SEQ ID NO: 1 and 2

Row | Substance | % inhibition of SMAD7 mRNA expression [%]
33 | 483664 (antisense eT*eG*e[5mC]*eT*e[5mC]*dA*dG*d[5mC]*dT*d[5mC]*dA*d[5mC]*dG*d[5mC]*dT*e[5mC]*eT*eG*eT*e[5mC]) [compound 483664] | 36
34 | 771505 (antisense e[5mC]*eT*e[5mC]*eA*eG*d[5mC]*dT*d[5mC]*dA*d[5mC]*dG*d[5mC]*dT*d[5mC]*dT*eG*eT*e[5mC]*e[5mC]*e[5mC]) [compound 771505] | 0
35 | 771730 (antisense eA*eA*eT*eG*e[5mC]*d[5mC]*d[5mC]*d[5mC]*d[5mC]*dG*dG*d[5mC]*d[5mC]*dA*d[5mC]*eA*eG*e[5mC]*eA*eG) [compound 771730] | 27
36 | 771435 (e[5mC]*eA*eG*e[5mC]*eT*dG*d[5mC]*d[5mC]*dG*d[5mC]*dT*d[5mC]*d[5mC]*dT*dT*e[5mC]*eA*eG*eT*eT; antisense) [compound 771435] | 29
37 | 771905 (antisense eT*eA*eG*eG*e[5mC]*dG*dA*dA*dT*d[5mC]*d[5mC]*d[5mC]*dT*d[5mC]*d[5mC]*e[5mC]*e[5mC]*e[5mC]*eA*eA) [compound 771905] | 0
38 | 771409 (antisense e[5mC]*e[5mC]*e[5mC]*e[5mC]*eT*dG*d[5mC]*dG*d[5mC]*d[5mC]*d[5mC]*dT*d[5mC]*d[5mC]*dT*e[5mC]*e[5mC]*eT*e[5mC]*eG) [compound 771409] | 19
39 | 771904 (antisense e[5mC]*e[5mC]*e[5mC]*eA*eA*d[5mC]*d[5mC]*d[5mC]*dA*dT*d[5mC]*dT*d[5mC]*d[5mC]*dA*e[5mC]*e[5mC]*eA*e[5mC]*e[5mC]) [compound 771904] | 0
40 | 771389 (antisense e[5mC]*eA*e[5mC]*e[5mC]*e[5mC]*d[5mC]*dG*d[5mC]*dG*d[5mC]*dG*dG*d[5mC]*d[5mC]*d[5mC]*eG*e[5mC]*eG*e[5mC]*e[5mC]) [compound 771389] | 18
41 | 771753 (antisense eG*eT*e[5mC]*e[5mC]*eA*dT*dG*dA*dA*d[5mC]*d[5mC]*dA*d[5mC]*dA*dA*e[5mC]*eT*e[5mC]*eA*eT) [compound 771753] | 50
42 | 771697 (antisense e[5mC]*eA*e[5mC]*eT*e[5mC]*dT*d[5mC]*d[5mC]*d[5mC]*dA*dG*dG*dA*dG*dG*eG*eT*eA*eT*eG) [compound 771697] | 5
43 | 771357 (antisense eG*eA*eG*eT*e[5mC]*dA*dG*dG*d[5mC]*dT*d[5mC]*dA*dA*dT*dG*eA*eG*eA*e[5mC]*eT) [compound 771357] | 16
44 | 771801 (antisense eA*e[5mC]*e[5mC]*eT*eA*d[5mC]*dA*dA*d[5mC]*dT*d[5mC]*dA*d[5mC]*dA*dA*eG*eG*eG*eA*eG) [compound 771801] | 31
45 | 771521 (antisense e[5mC]*eA*eT*eG*eA*dA*dA*dA*dG*d[5mC]*dA*dA*dG*d[5mC]*dA*e[5mC]*eT*e[5mC]*eA*eG) [compound 771521] | 33
46 | 771592 (antisense e[5mC]*eT*eG*e[5mC]*eT*d[5mC]*dA*dG*dA*dA*dG*d[5mC]*d[5mC]*dT*dG*eT*eG*eG*eA*e[5mC]) [compound 771592] | 0
47 | 771856 (antisense e[5mC]*eT*eG*eA*eA*dA*dG*dA*dA*dA*dG*dT*d[5mC]*d[5mC]*d[5mC]*eG*eA*e[5mC]*eT*eT) [compound 771856] | 34

same assay, conditions: electroporation, 15,000 nM, approximately 24 hours, gapmers targeting SEQ ID NO: 3 and 4

Row | Substance | % inhibition of SMAD7 mRNA expression [%]
48 | 771342 (antisense eT*e[5mC]*eA*eG*eT*dT*dG*dG*dT*dT*dT*dG*dA*dG*dA*eA*eA*eA*eT*e[5mC]) [compound 771342] | 35

same assay, conditions: electroporation, 15,000 nM, approximately 24 hours, relative to untreated control cells, gapmers targeting SEQ ID NO: 1 and 2

Row | Substance | % inhibition of SMAD7 mRNA expression [%]
49 | 771917 (antisense e[5mC]*e[5mC]*eA*eG*eA*d[5mC]*d[5mC]*d[5mC]*d[5mC]*dT*dT*d[5mC]*dT*dT*dA*eA*eA*eT*eT*eT) [compound 771917] | 22
50 | 771845 (antisense eT*eT*e[5mC]*e[5mC]*eA*dA*dG*d[5mC]*dA*d[5mC]*dG*dG*dA*dG*dT*e[5mC]*eA*eG*e[5mC]*e[5mC]) [compound 771845] | 39
